Calls of active or inactive are those of the source. No cut-off for these calls is given here.
How the values were obtained:
[1] = target: AMP-activated protein kinase, AMPK; experiment: Inhibition of recombinant AMPK A1/B1/G1 (unknown origin) after 60 mins by z'-lyte kinase assay; type: protein-complex assay, Homo sapiens
[2] = tested on: SW-620; experiment: Inhibition of colony formation in human SW620 cells at 5 uM after 96 hrs by crystal violet staining-based assay; type: functional, cell-based
[3] = Cytotoxicity against human SKHEP1 cells after 96 hrs by CCK-8 assay; type: functional, cell-based; conditions: SK-HEP1, 96 h
[4] = Antitumor activity against human QGY7401 cells xenografted in nude mouse assessed as inhibition of tumor growth at 20 mg/kg, ip qd administered for 14 days measured on day 18 relative to control; type: functional; conditions: route intraperitoneal, read-out: TGI
[5] = Cytotoxicity against human HuH7 cells after 96 hrs by CCK-8 assay; type: functional, cell-based; conditions: Huh-7, 96 h
[6] = target: Casein kinase I isoform alpha (Homo sapiens, UniProt P48729); experiment: Inhibition of recombinant CK1 alpha1 (unknown origin) after 60 mins by z'-lyte kinase assay
Chain of Casein kinase I isoform alpha (P48729 whole entry, canonical isoform): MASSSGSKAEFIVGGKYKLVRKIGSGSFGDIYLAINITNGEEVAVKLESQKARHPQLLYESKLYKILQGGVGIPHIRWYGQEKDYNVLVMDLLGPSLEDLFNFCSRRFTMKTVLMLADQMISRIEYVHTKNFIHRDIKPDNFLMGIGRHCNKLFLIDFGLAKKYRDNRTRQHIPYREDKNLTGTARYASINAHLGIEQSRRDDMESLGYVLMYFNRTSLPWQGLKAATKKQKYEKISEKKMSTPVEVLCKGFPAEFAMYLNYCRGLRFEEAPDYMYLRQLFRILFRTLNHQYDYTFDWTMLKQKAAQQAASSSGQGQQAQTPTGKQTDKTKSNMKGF

[7] = tested on: HepG2; experiment: Inhibition of colony formation in human HepG2 cells after 96 hrs by crystal violet staining-based assay; type: functional, cell-based
[8] = tested on: SW480; experiment: Cytotoxicity against human SW480 cells after 96 hrs by CCK-8 assay; type: functional, cell-based; conditions: SW480, 96 h
[9] = tested on: Mus musculus; experiment: Acute toxicity in mouse up to 1000 mg/kg, ip qd administered for 2 weeks; type: organism-based; set-up: dose 1000 mg/kg, route intraperitoneal; conditions: in vivo, 336 h
[10] = target: T1, Aurora kinase B (Homo sapiens, UniProt Q96GD4); experiment: Inhibition of AURKB in human HepG2 cells assessed as reduction in histone H3 phosphorylation at 20 uM after 48 hrs by Western blotting analysis; type: cell-based
T1 sequence (Q96GD4 whole entry): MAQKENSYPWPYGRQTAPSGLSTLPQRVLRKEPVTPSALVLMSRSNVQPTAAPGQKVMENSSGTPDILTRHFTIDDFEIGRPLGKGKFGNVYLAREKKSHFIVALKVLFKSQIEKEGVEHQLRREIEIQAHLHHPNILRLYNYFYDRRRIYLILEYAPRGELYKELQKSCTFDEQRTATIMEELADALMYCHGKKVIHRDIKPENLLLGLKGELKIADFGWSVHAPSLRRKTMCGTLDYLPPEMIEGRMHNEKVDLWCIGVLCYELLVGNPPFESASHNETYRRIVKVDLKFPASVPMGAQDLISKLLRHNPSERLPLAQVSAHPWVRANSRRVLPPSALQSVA

[11] = tested on: HepG2; experiment: Cell cycle arrest in human HepG2 cells assessed as reduction in G1 phase at 20 uM after 48 hrs by flow cytometry relative to control; type: functional, cell-based
[12] = tested on: MCF7; experiment: Cytotoxicity against human MCF7 cells after 96 hrs by CCK-8 assay; type: functional, cell-based; conditions: MCF7, 96 h
[13] = target: Serine/threonine-protein kinase Nek1 (Homo sapiens, UniProt Q96PY6); experiment: Inhibition of recombinant NEK1 (unknown origin) after 60 mins by z'-lyte kinase assay
Chain of Serine/threonine-protein kinase Nek1 (Q96PY6 whole entry): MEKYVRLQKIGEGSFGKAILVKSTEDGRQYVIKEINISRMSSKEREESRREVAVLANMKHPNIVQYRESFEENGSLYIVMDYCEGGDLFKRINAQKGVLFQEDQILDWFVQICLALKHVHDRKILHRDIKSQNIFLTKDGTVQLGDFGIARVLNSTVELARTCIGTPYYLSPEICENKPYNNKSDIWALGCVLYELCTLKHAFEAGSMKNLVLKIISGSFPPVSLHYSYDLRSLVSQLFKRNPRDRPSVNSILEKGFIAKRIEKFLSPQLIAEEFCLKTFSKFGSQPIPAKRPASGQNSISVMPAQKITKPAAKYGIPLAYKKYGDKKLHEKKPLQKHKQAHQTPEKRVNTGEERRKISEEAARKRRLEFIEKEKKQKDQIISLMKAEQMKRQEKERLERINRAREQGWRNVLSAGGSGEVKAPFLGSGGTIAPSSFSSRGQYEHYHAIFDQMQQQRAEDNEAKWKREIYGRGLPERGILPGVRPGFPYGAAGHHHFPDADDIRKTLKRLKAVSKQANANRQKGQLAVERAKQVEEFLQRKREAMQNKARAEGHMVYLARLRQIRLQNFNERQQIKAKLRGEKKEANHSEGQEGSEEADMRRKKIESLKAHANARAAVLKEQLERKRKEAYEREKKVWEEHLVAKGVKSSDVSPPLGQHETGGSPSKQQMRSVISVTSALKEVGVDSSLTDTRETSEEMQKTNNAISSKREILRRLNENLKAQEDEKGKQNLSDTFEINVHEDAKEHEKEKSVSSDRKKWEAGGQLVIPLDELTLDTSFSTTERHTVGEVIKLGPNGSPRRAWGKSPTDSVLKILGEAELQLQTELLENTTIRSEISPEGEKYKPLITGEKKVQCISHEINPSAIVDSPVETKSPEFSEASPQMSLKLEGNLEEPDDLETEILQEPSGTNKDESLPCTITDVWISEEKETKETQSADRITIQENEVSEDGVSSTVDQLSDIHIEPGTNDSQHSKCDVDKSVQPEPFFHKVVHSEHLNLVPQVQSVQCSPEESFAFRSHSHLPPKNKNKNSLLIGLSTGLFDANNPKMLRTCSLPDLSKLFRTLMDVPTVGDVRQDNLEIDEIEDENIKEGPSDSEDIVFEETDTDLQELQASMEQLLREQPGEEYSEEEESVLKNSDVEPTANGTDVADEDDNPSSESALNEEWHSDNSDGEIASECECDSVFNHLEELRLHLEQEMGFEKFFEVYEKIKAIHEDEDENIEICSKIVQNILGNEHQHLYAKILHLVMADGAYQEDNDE

[14] = Antitumor activity against human QGY7401 cells xenografted in nude mouse assessed as reduction in body weight at 20 mg/kg, ip qd administered for 14 days measured on day 18 (reference value: 24.13 +/- 2.18 g); type: functional; conditions: route intraperitoneal
[15] = target: T1, Aurora kinase B; experiment: Inhibition of AURKB in human HepG2 cells assessed as reduction in Aurora B expression expression at 5 to 20 uM after 48 hrs by Western blotting analysis; type: cell-based
[16] = Cytotoxicity against human SKOV3 cells after 96 hrs by CCK-8 assay; type: functional, cell-based; conditions: SK-OV-3, 96 h
[17] = tested on: HT-29; experiment: Cytotoxicity against human HT-29 cells after 96 hrs by CCK-8 assay; type: functional, cell-based; conditions: HT-29, 96 h
[18] = target: T1, Aurora kinase B; experiment: Inhibition of AURKB in human HeLa cells assessed as reduction in Aurora B expression at 5 to 20 uM after 48 hrs by Western blotting analysis; type: cell-based
[19] = target: Protein kinase C alpha type (Homo sapiens, UniProt P17252); experiment: Inhibition of recombinant PKC alpha (unknown origin) after 60 mins by z'-lyte kinase assay
[20] = tested on: SMMC-7721; experiment: Cytotoxicity against human SMMC7721 cells after 96 hrs by CCK-8 assay; type: functional, cell-based; conditions: SMMC-7721, 96 h
[21] = tested on: MDA-MB-231; experiment: Cytotoxicity against human MDA-MB-231 cells after 96 hrs by CCK-8 assay; type: functional, cell-based; conditions: MDA-MB-231, 96 h
[22] = Antitumor activity against human QGY7401 cells xenografted in nude mouse assessed as reduction in body weight at 10 mg/kg, ip qd administered for 14 days measured on day 18 (reference value: 24.13 +/- 2.18 g); type: functional; conditions: route intraperitoneal
[23] = target: Vascular endothelial growth factor receptor 1 (Homo sapiens, UniProt P17948); experiment: Inhibition of recombinant FLT1 (unknown origin) after 60 mins by z'-lyte kinase assay
Chain of Vascular endothelial growth factor receptor 1 (P17948 whole entry): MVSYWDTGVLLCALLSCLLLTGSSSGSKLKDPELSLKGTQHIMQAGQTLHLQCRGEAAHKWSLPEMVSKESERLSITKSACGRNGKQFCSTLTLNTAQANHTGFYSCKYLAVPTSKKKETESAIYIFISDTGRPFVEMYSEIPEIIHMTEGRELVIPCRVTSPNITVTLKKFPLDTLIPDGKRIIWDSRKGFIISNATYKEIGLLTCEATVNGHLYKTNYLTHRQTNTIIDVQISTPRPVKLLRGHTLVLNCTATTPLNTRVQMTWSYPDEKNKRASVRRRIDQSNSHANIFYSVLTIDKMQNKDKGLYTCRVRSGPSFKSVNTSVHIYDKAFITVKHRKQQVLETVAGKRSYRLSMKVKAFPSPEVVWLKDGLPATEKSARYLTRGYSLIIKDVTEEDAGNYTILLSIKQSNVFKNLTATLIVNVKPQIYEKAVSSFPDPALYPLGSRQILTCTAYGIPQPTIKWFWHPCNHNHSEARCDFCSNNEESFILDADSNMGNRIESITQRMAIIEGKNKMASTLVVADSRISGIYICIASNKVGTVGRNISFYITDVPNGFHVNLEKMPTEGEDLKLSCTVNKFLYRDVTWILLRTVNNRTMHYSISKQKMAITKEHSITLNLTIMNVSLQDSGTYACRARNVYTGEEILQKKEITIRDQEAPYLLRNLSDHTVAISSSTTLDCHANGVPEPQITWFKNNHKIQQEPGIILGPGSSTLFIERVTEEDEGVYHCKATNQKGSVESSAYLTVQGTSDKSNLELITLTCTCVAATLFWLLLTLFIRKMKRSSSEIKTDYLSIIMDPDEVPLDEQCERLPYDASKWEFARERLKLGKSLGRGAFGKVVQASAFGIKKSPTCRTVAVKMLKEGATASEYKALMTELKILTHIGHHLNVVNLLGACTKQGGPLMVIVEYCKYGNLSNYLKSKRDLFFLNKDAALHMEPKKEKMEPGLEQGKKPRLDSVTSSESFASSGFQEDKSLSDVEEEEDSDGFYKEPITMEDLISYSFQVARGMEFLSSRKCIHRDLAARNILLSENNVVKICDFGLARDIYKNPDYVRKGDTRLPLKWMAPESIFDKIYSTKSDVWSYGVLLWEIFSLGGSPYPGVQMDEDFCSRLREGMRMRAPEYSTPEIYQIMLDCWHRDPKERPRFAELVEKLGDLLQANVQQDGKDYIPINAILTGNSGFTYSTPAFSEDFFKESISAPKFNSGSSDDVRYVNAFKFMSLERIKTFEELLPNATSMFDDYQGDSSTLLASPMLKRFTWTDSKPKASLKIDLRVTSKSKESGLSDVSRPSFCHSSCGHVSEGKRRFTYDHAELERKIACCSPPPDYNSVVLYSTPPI

[24] = tested on: Homo sapiens; experiment: Inhibition of histone H3 phosphorylation in human QGY7401 cells xenografted in nude mouse at 10 to 20 mg/kg, ip qd administered for 14 days by hematoxylin and eosin staining-based microscopic analysis; type: functional, organism-based
[25] = target: Cyclin-dependent kinase 1/cyclin B1 (Homo sapiens, UniProt P06493); experiment: Inhibition of recombinant CDK1/cyclin B (unknown origin) after 60 mins by z'-lyte kinase assay; type: protein-complex assay
Chain of Cyclin-dependent kinase 1/cyclin B1 (P06493 whole entry): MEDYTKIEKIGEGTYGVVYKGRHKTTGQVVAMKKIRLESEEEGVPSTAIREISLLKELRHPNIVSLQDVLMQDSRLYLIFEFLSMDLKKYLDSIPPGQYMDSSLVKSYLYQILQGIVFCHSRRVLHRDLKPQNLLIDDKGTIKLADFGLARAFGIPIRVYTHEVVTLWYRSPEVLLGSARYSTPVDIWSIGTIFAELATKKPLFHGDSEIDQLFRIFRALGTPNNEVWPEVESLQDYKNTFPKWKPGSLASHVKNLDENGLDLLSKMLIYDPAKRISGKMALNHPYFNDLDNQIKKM
Chain of Cyclin-dependent kinase 1/cyclin B1 (P14635 whole entry, further chain): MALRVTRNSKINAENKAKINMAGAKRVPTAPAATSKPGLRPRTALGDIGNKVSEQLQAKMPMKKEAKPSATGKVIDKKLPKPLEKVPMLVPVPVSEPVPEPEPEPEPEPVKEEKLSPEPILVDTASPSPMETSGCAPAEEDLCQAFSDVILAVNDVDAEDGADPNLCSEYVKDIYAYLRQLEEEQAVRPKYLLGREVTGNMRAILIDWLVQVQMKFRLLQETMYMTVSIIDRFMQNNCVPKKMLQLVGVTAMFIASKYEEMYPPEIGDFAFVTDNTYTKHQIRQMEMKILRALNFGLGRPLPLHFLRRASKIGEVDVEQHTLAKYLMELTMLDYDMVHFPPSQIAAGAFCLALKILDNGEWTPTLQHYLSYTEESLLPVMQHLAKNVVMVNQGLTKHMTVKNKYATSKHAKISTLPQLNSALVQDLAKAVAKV

[26] = tested on: HepG2; experiment: Growth inhibition of human HepG2 cells at 5 to 20 uM after 96 hrs by CCK-8 assay; type: functional, cell-based
[27] = Cytotoxicity against human SPC-A1 cells after 96 hrs by CCK-8 assay; type: functional, cell-based; conditions: SPCA1, 96 h
[28] = Cytotoxicity against human PC3 cells after 96 hrs by CCK-8 assay; type: functional, cell-based; conditions: PC-3, 96 h
[29] = tested on: HeLa; experiment: Cytotoxicity against human HeLa cells after 96 hrs by CCK-8 assay; type: functional, cell-based
[30] = tested on: HepG2; experiment: Inhibition of colony formation in human HepG2 cells at 5 uM after 96 hrs by crystal violet staining-based assay; type: functional, cell-based
[31] = tested on: HeLa; experiment: Growth inhibition of human HeLa cells at 5 to 20 uM after 96 hrs by CCK-8 assay; type: functional, cell-based
[32] = Antitumor activity against human QGY7401 cells xenografted in nude mouse assessed as reduction in tumor weight at 20 mg/kg, ip qd administered for 14 days measured on day 18 (reference value: 2.24 +/- 0.20 g); type: functional; conditions: route intraperitoneal
[33] = Cytotoxicity against human PANC1 cells after 96 hrs by CCK-8 assay; type: functional, cell-based; conditions: PANC-1, 96 h
[34] = target: T1, Aurora kinase B; experiment: Inhibition of recombinant AURKB (unknown origin) after 60 mins by z'-lyte kinase assay

For O=C1/C(=C\c2ccc(O)c(O)c2)Oc2ccccc21, the IC50 [1] was 19.5 µM, the inhibition [2] was “Active” and the IC50 [3] was 41.9 µM. It also gave an inhibition in vivo at 20 mg/kg [4] of 48.1%, an IC50 [5] of 21.1 µM and an IC50 [6] of 78.8 µM. The inhibition [7] was “Dose-dependent effect”, the IC50 [8] was 50 µM and the Activity [9] was “Non-toxic”. The inhibition [10] was “Active”, the Activity [11] was “Active” and the IC50 [12] was 16.2 µM. The IC50 [13] was 11.5 µM, the Activity [14] was 22.14 g and the inhibition [15] was “Active”. The IC50 [16] was 26.1 µM, the IC50 [17] was 34.9 µM and the inhibition [18] was “Active”. For the same compound, the IC50 [19] was 26.8 µM, the IC50 [20] was 20.3 µM and the IC50 [21] was > 50 µM. For the same compound, the Activity [22] was 21.87 g, the IC50 [23] was 3.7 µM and the inhibition [24] was “Active”. For the same compound, the IC50 [25] was 37.4 µM, the “growth inhibition (GI)” value [26] was “Active” and the IC50 [27] was 20.4 µM. For the same compound, the IC50 [28] was > 50 µM, the IC50 [29] was 13.4 µM and the inhibition [30] was “Active”. For the same compound, the “growth inhibition (GI)” value [31] was “Active”, the Activity [32] was 1.44 g and the IC50 [33] was 36.5 µM. For the same compound, the IC50 [34] was 0.735 µM.

Source: ChEMBL document CHEMBL3351909, “In vitro and in vivo characterization of a benzofuran derivative, a potential anticancer agent, as a novel Aurora B kinase inhibitor” (Eur J Med Chem, 2015)
